From patent publication US5470833A, “Endothelin antagonistic peptide derivatives” (Banyu Pharmaceutical Co., Ltd., priority 1990, dated 1995) come the findings set out here.

Assay [1] relates to isolated guinea pig trachea. The assay is described as follows: Activities against endothelin-induced contraction of isolated guinea pig trachea. The note with it: 6 μM compound; for shift of the concentration-response curve for endothelin-1: added 20 minutes prior to endothelin-1. As for the experimental part: The trachea of a guinea pig was extracted, and the trachea was cut into rings to afford a preparation.
Endothelin-1 was added into the organ bath in a cumulatively increasing manner, and the influence of a compound of the present invention to the concentration-response curve for endothelin was examined. The compound was added into the organ bath 20 minutes prior to the addition of endothelin-1.

Assay [2] has as its system isolated porcine coronary artery. The assay is described as follows: Activities against endothelin-induced contraction of isolated porcine coronary arteries. Further details: species or system pig. The note with it: for shift of the concentration-response curve of endothelin-1: added 20 minutes prior to endothelin-1. The protocol: The coronary artery of pig was extracted, and a spiral preparation having a width of 1 mm and a length of 10 mm was prepared therefrom.
Endothelin-1 was added into the organ bath in a cumulatively increasing manner, whereby the influence of a compound of the present invention to the concentration-response curve for endothelin-1 was examined. The compound was added into the organ bath 20 minutes prior to the addition of endothelin-1.

Assay [3] deals with T1, endothelin receptor (membrane of smooth muscle tissue of porcine aorta) (Sus scrofa, UniProt Q29010).
T1 construct: from tissue; host or cells: porcine aorta smooth muscle, membrane fraction
T1 sequence (Q29010 21-427): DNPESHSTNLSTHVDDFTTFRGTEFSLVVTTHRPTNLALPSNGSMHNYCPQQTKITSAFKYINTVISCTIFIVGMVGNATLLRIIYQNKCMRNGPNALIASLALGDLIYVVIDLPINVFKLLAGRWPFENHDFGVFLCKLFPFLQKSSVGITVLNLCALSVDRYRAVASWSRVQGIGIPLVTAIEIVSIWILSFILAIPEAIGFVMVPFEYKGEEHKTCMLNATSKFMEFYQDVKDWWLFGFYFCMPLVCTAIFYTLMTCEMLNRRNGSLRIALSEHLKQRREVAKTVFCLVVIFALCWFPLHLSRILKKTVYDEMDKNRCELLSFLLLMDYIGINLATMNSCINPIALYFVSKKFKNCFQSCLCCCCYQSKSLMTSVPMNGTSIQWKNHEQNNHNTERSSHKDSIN
Briefly: Endothelin binding inhibition test (125I-endothelin-1, porcine aorta smooth muscle membrane). The note with it: read-out: 125I-endothelin-1 binding inhibition.

Assay [4] relates to isolated rat heart. The assay is described as follows: Effects on the increased perfusion pressure induced by endothelin in isolated rat heart (Langendorff). The protocol: The heart of a male Sprague Dohrie (SD) rat was extracted, and the perfusion pressure was measured and recorded according to the Langendorff's method.
Endothelin-1 was cumulatively added to the perfusate, whereby the influence of a compound of the present invention to the concentration-response curve for endothelin-1 was examined. The compound which was dissolved in the perfusate had been infused from 20 minutes prior to the addition of endothelin-1 till just after finishing measurement of the concentration-response curve for endothelin-1.

Like-named read-outs stand apart in the source and are kept apart here.

In general, inhibition refers to the percentage by which the read-out fell short of the control. Consider `CC(C)C[C@H](NC(=O)N1CCCCCC1)C(=O)N[C@H](Cc1c[nH]c2ccccc12)C(=O)N[C@H](Cc1c[nH]c2ccccc12)C(=O)O` [Compound 50], for which, in assay [1], the “maximum response to endothelin-1” value is given as “did not affect the maximum response” and the “shift of the concentration-response curve for endothelin-1” value was “remarkably shifted the concentration-response curves for endothelin-1 to the right”. In assay [2] (2 μM compound), the “maximum response to endothelin-1” value was “did not affect the maximum response” and the “shift of the concentration-response curve of endothelin-1” value is on record as “remarkably shifted the concentration-response curves of endothelin-1 to the right”. Moreover, the inhibition at 1.1 µM in assay [3] was determined as 87%. Besides, the “maximum response to endothelin-1 (perfusion pressure)” value in assay [4] (1 μM compound) is given as “did not affect the maximum response”. Further, in assay [4] (1 μM compound in perfusate from 20 minutes prior to endothelin-1), the “shift of the concentration-response curve for endothelin-1 (perfusion pressure)” value is on record as “moved the concentration-response curve for endothelin-1to the right”.
`CC(C)C[C@H](NC(=O)N1CCCCCC1)C(=O)N[C@H](Cc1c[nH]c2ccccc12)C(=O)NCCC(=O)O` [Compound 93]: in assay [1], the “maximum response to endothelin-1” value was “did not affect the maximum response” and the “shift of the concentration-response curve for endothelin-1” value is “remarkably shifted the concentration-response curves for endothelin-1 to the right”. Besides, in assay [2] (6 μM compound), the “maximum response to endothelin-1” value is reported as “did not affect the maximum response” and the “shift of the concentration-response curve of endothelin-1” value is “remarkably shifted the concentration-response curves of endothelin-1 to the right”. Also, the inhibition at 1.1 µM in assay [3] (1.1 μM test compound (no mark)) turned out to be 78%.
